From patent publication US20150231238A1, “OVERCOMING RESISTANCE TO ERBB PATHWAY INHIBITORS” (MERRIMACK PHARMACEUTICALS, INC., priority 2011, published 2015)

Columns and labels:
[1] = tested on: pAKT in A2780 cells; assay: pAKT (ser473) western blot in cisplatin-sensitive cells; format: cell-based, human; conditions: cisplatin 0.1 to 10 μM, especially after 24 hours and/or 10 μM
Protocol: (§1) After incubation cell lysates are prepared and analyzed for pAKT (ser473) (Cat #9271 Cell Signaling Technologies) by western blot.
(§2) The effect of MM-121 on the AKT pathway is determined by treating sensitive (A2780) and resistant (A2780cis) cells with a dose range of MM-121 ((0.01 to 1 μM) in vitro for 1, 4, 24 or 72 hours. After incubation cell lysates are prepared and analyzed for pAKT (ser473) (Cat. #9271 Cell Signaling Technologies) by western blot.
(§3) Cell lysates are analyzed by western blot for pAKT.

[2] = tested on: A2780cis cells; assay: Cell Titer Glo cell viability after cisplatin, resistant versus sensitive line; format: cell-based, human; conditions: cisplatin 0.01 to 10 μM, 72 hours
Protocol: The A2780 human ovarian cancer cell line was originally established from tumor tissue from an untreated patient. The A2780cis cell line is cisplatin-resistant (Cat. #93112517, Sigma). […] A2780cis is cross-resistant to melphalan, adriamycin and irradiation.
Cell viability is measured using the Cell Titer Glo assay (Cat. # G7570, Promega) according to the manufacturer's instructions.
Cell viability was measured by the Cell Titer Glo assay which measures metabolically active cells by quantitating ATP.

[3] = tested on: pAKT in A2780cis cells; assay: pAKT (ser473) western blot in cisplatin-resistant cells; format: cell-based, human; conditions: cisplatin 0.1 to 10 μM or MM-121 0.01 to 1 μM, 1, 4, 24 or 72 hours
Protocol: as §1, §2, §3

[4] = tested on: BT474-M3 cells; assay: In vitro breast cancer model, viable cell count after 6 days; format: cell-based
[5] = tested on: ErbB3, Akt and ERK1/2 signaling in BT474-M3-GFP-HRG tumors; assay: Target and downstream signaling in BT474-M3-GFP-HRG tumor lysates (Luminex, western blot); format: in vivo, mice; conditions: for activity in reducing pErbB3 levels with tumoral HRG expression: versus BT474-M3-GFP; for ratio of pERK and totERK levels / ratio of pErbB3 to total ErbB3 / ratio of phospho-Akt to total Akt: in the presence of HRG
Protocol: (§4) At the end of study (21 or 25 days after initiation of treatment for BT474-M3-GFP-HRG and BT474-M3-GFP, respectively) tumor samples were collected (24 h after the last MM-111 and 6 h after the last lapatinib dose) and analyzed for target and downstream signaling inhibition. Total and phosphorylated ErbB3 and Akt protein levels were analyzed from tumor lysates by suspension array technology (Luminex) and total and phosphorylated Erk1/2 levels by western blot using PCNA to normalize the results.

[6] = tested on: pAKT in heregulin-stimulated BT474-M3 cells; assay: Inhibition of AKT phosphorylation in heregulin-stimulated cells; format: cell-based; conditions: dose range
[7] = tested on: NCI-N87 tumors; conditions: paclitaxel 20 mpk q7d, trastuzumab 3.5 mpk q3d, MM-111 48 mpk q3d
Protocol: 7.5×10^6 NCI-N87 cells were implanted subcutaneously in the flanks of female Nu/Nu mice. When tumor volumes reached on average 341 mm^3 (on day 24 after tumor implantation) mice were segregated into 4 groups of 10 mice. […] Tumors were measured twice a week with a digital caliper.

[8] = tested on: BT474-M3-GFP-HRG tumors; assay: BT474-M3-GFP-HRG tumor xenograft growth; format: in vivo, mice; conditions: Example 10; MM-111 48 mpk q3d i.p., tamoxifen 5 mg; versus BT474-M3-GFP
Protocol: 15×10^6 BT474-M3 cells engineered to express GFP (BT474-M3-GFP) or BT474-M3 cells engineered to express GFP and heregulin 1 (BT474-M3-GFP-HRG) were implanted in to the mammary fat pads of estrogen supplemented (0.72 mg 17β-estradiol in a 60-day slow release biodegradable carrier) female NCr/NU-mice (Taconic Farms, Inc). When tumor volumes reached on average 516 mm^3 (BT474-M3-GFP-HRG on day 17 after tumor implantation) or 422 mm^3 (BT474-M3-GFP on day 20 after tumor implantation), mice were segregated into 8 groups of 10-15 mice. Groups received either no treatment (Control), MM-111 (48 mpk q3d i.p. (dose every three days, intraperitoneally)), lapatinib (150 mpk qd p.o. (oral dose daily)), tamoxifen (5 mg free base tamoxifen in a 60-day slow release biodegradable carrier), MM-111 and lapatinib, MM-111 and tamoxifen, lapatinib and tamoxifen or MM-111, lapatinib and tamoxifen. Tumors were measured twice a week with a digital caliber.

[9] = tested on: BT474-M3 wild type cell spheroids; assay: Spheroid assay, parental cells; format: cell-based; conditions: series dilution, six days
Protocol: (§5) Cells are cultured for six days. Spheroids are then examined by Nikon microscope and analyzed by MetaMorph® Image Analysis Software (Molecular Devices). The spheroid size from cells cultured in medium containing 10% FBS is set as a control.

[10] = tested on: ErbB3, Akt and ERK1/2 signaling in BT474-M3-GFP tumors; assay: Target and downstream signaling in BT474-M3-GFP tumor lysates (Luminex, western blot); format: in vivo, mice; conditions: end of study tumor lysates
Protocol: as §4

[11] = tested on: trastuzumab-resistant BT474-M3 cells; assay: Cell proliferation assay (WST-1), trastuzumab-resistant cells; format: cell-based; conditions: series dilution, five days
Protocol: (§6) After five days of treatment, cell viability is measured by WST-1 (Roche, Cat. #5015944001) according to manufacturer's instructions. Cells treated with control (RPMI1640 with 10% FBS) are set as 100%, other treatments are expressed as percentage of the control.

[12] = tested on: BT474-M3 parental (wild-type) cells; assay: Cell proliferation assay (WST-1), parental cells; format: cell-based; conditions: series dilution, five days
Protocol: as §6

[13] = tested on: trastuzumab-resistant BT474-M3 cell spheroids; assay: Spheroid assay, trastuzumab-resistant cells; format: cell-based
Protocol: as §5

[14] = tested on: BT474-M3 breast cancer xenograft; assay: BT474-M3 breast cancer xenograft model; format: in vivo, mice; conditions: MM-111 3 mg/kg every 3 days, trastuzumab 1 mg/kg weekly
Protocol: BT474-M3 cells (2×10^7 cells per mice) are inoculated subcutaneously into Nu/Nu immunodeficient mice, which are implanted with an estrogen pellet (0.72 mg; 60-day release) one day before the experiment. […] Tumors are measured twice a week and the experiment is ended at day 40.

[15] = tested on: heregulin-induced phosphorylation of ErbB3, AKT and ERK in ACHN, Du145 and OvCAR8 cells; assay: ELISA of heregulin-induced pErbB3, pAKT and pERK in cell lysates; format: cell-based
Protocol: In the first set of experiments, three cancer cell lines (ACHN (renal cell adenocarcinoma, ATCC® #CRL-1611™), Du145 (prostate carcinoma, ATCC® #HTB-81™) and OvCAR 8 (ovarian adenocarcinoma, ATCC® #HTB-161™) cell lines; obtained from the National Cancer Institute's Developmental Therapeutics Program) were seeded at 35,000 cells per well in 96-well plates and grown overnight (maintenance culture medium was RPMI-1640 media supplemented with 10% fetal calf serum, 2 mM L-glutamine, and Pen-Strep; cells were grown in a humidified atmosphere at 5% CO2, 95% air at 37° C.). Cells were synchronized by 20-24 hour serum starvation. The cells were then pre-incubated with 4-fold serial dilutions, ranging from […] to 7.6 pM, of MM-121 for 30 minutes. […]
For ELISA analysis of cell lysates, capture antibodies against ErbB1 (R&D Systems AF231), ErbB2 (R&D Systems, MAB1129), ErbB3 (R&D Systems, MAB 3481) and AKT (Upstate, 05-591 MG) were incubated in 384 well black flat-bottom polystyrene high-binding plates (Corning, 3708) overnight at room temperature. […] All ELISAs were visualized with SuperSignal® ELISA Pico Chemiluminescent Substrate (Pierce, Cat. #37069) and luminescent signal was measured using a luminometer.
Inhibitor IC50 values were calculated by least-squares fitting the dose response data with a sigmoidal curve (GraphPad Prism®, GraphPad Software, Inc., La Jolla, Calif.).

[16] = tested on: EGFR wild-type NSCLC cell lines; assay: Spheroid assay (CellTiter Glo live cell density) in EGFR wild-type NSCLC cell lines; format: cell-based
Protocol: The cell lines bear no mutations within their EGFR genes and represent three distinct histological subtypes (see Table X below). Cells harboring Ras mutations are indicated.
Relative live cell densities were then determined using the CellTiter Glo® reagent (Promega).

[17] = in the presence of 5 nM heregulin

`N.N.[Cl][Pt][Cl]` [cisplatin] was tested, and the pAKT production [1] was “decrease in pAKT production”, the “cell viability (percentage of media control), A2780cis versus A2780” value [2] was “much greater viability” and the pAKT production [3] was “no effect on pAKT production”.

`CS(=O)(=O)CCNCc1ccc(-c2ccc3ncnc(Nc4ccc(OCc5cccc(F)c5)c(Cl)c4)c3c2)o1` [lapatinib, reference compound] was tested, and the “inhibition of cell proliferation” value ([4]; basal conditions) was 50%, the “inhibition of cell proliferation” value [4, 17] was 23% and the “activity in reducing pErbB3 levels with tumoral HRG expression” value ([5]; end of study tumor lysates) was “decreased”. The “ratio of pERK and totERK levels” value [5] was “decreased effectiveness”, the “ratio of pErbB3 to total ErbB3” value [5] was “effectiveness was reduced in the presence of HRG” and the “ratio of phospho-Akt to total Akt” value [5] was “decreased effectiveness”. The “inhibition of AKT phosphorylation” value [6] was “inhibited phosphorylation of AKT”.

For `CC(=O)O[C@H]1C(=O)[C@@]2(C)[C@H]([C@H](OC(=O)c3ccccc3)[C@]3(O)C[C@H](OC(=O)[C@H](O)[C@@H](NC(=O)c4ccccc4)c4ccccc4)C(C)=C1C3(C)C)[C@]1(OC(C)=O)CO[C@@H]1C[C@@H]2O` [paclitaxel], the tumor growth [7] was “only tumor stasis at best”.

With `CC/C(=C(\c1ccccc1)c1ccc(OCCN(C)C)cc1)c1ccccc1` [tamoxifen, reference compound] the “effect of tumoral HRG overexpression on efficacy (tumor volume)” value [8] was “improved”.

With “MM-111: bispecific anti-ErbB3, anti-ErbB2 antibody, two scFvs in a Human Serum Albumin conjugate, SEQ ID NO:44” the “inhibition of spheroid growth” value [9] was “significantly reduced spheroid growth”, the “total ErbB3 expression” value [10] was “increased total ErbB3 expression” and the “inhibition of cell proliferation” value ([4]; basal conditions) was 24%. For the same molecule, the “inhibition of cell proliferation” value [4, 17] was 33%, the “inhibition of cell proliferation” value [11] was “maintained similar inhibitory activity” and the “total ErbB3 expression” value ([5]; end of study tumor lysates) was “increased total ErbB3 expression”. For the same molecule, the “activity in reducing pErbB3 levels with tumoral HRG expression” value ([5]; end of study tumor lysates) was “increased effectiveness”, the “ratio of pERK and totERK levels” value [5] was “effective at reducing pERK production in the presence of HRG” and the “ratio of pErbB3 to total ErbB3” value [5] was “decreased ErbB3 activity even in the presence of HRG”. The “ratio of phospho-Akt to total Akt” value [5] was “effective at reducing pAkt production in the presence of HRG”, the “inhibition of cell proliferation” value [12] was “maintained similar inhibitory activity” and the “inhibition of spheroid growth in combination with gefitinib” value ([13]; in the presence of 100 nM gefitinib) was “effective at inhibiting cell growth”. For the same molecule, the “inhibition of spheroid growth in combination with erlotinib” value ([13]; in the presence of 300 nM erlotinib) was “effective at inhibiting cell growth”, the “inhibitory activity in trastuzumab-resistant cells compared with wild-type cells” value ([13]; spheroids) was “slightly improved” and the “inhibition of spheroid growth” value ([13]; trastuzumab-resistant cells, series dilution, six days) was “significantly reduced spheroid growth”. For the same molecule, the “effect of tumoral HRG overexpression on efficacy (tumor volume)” value [8] was “modestly improved” and the completely regressed tumors [14] was “no complete regressions were observed”.

B1: MM-121: fully human anti-ErbB3 antibody, VH and VL sequences SEQ ID NOs: 1 and 2 (antibody, V domains shown)
VH: EVQLLESGGGLVQPGGSLRLSCAASGFTFSHYVMAWVRQAPGKGLEWVSSISSSGGWTLYADSVKGRFTISRDNSKNTLYLQMNSLRAEDTAVYYCTRGLKMATIFDYWGQGTLVTVSS
VL: QSALTQPASVSGSPGQSITISCTGTSSDVGSYNVVSWYQQHPGKAPKLIIYEVSQRPSGVSNRFSGSKSGNTASLTISGLQTEDEADYYCCSYAGSSIFVIFGGGTKVTVL
For B1, the “inhibition of HRG-induced ErbB3, AKT and ERK phosphorylation” value ([15]; MM-121 2 mM to 7.6 pM pre-incubated 30 minutes, 25 nM heregulin 10 minutes, versus HRG control) was “inhibits HRG-induced ErbB3, AKT and ERK phosphorylation”, the “maximal inhibition of pErbB3, pAKT and pERK relative to unstimulated control” value ([15]; in most cases) was “near or below basal signaling levels” and the “effect on sensitivity of spheroids to erlotinib, dose range” value ([16]; 1 μM MM-121 added to erlotinib 0 to 10 μM, 10 nM HRG, all eight cell lines) was “restore sensitivity of the spheroids to erlotinib”. For the same molecule, the “effect on sensitivity of the cells to erlotinib” value ([16]; MM-121 1 μM with erlotinib 1 μM, HRG-stimulated cells, all five cell lines) was “greatly improve sensitivity of the cells to erlotinib” and the pAKT production [3] was “gradual decrease in pAKT production at all dose levels”.
